How the values were obtained:
[1] = test system: ER-positive cancer; conditions: compared to placebo, cited from earlier work
[2] = test system: ER-positive breast cancer; test: Distant relapse-free survival after adjuvant tamoxifen; assay type: in vivo, human; conditions: ER-positive patients on adjuvant tamoxifen
Experimental: Patients and Samples. […] At MDACC, pre-treatment fine needle aspiration (FNA) samples of primary breast cancer were obtained using a 23-gauge needle and the cells from 1-2 passes were collected into a vial containing 1 ml of RNAlater™ solution (Ambion, Austin Tex.) and stored at −80° C. until use, whereas archival frozen samples were evaluated from resected, metastatic, ER-positive breast cancer. All patients signed an informed consent for voluntary participation to collect samples for research. At other institutions, fresh tissue samples of surgically resected primary breast cancer were frozen in OCT compound and stored at −80° C.
Statistical Analysis of Distant relapse-free survival (DRFS). Distant relapse-free survival (DRFS) was defined as the interval from breast surgery until diagnosis of distant metastasis. Covariate effects on distant relapse risk after tamoxifen treatment were evaluated using log-rank test in multivariate Cox proportional hazards models stratified by institution. […] Confidence intervals of the survival estimate were calculated based on the Tsiatis variance estimates of the cumulative log-hazards (Therneau and Grambsch, 2000). […]

| Compound | relative reduction in deaths ([1]; after 2.4 years, after 5 years of adjuvant tamoxifen) | absolute difference in recurrence or new primaries ([1]; at 2.4 years) | mean relapse-free survival at 10 years ([2]; SET index<2) | mean relapse-free survival at 10 years ([2]; SET index>5) |
| --- | --- | --- | --- | --- |
| N#Cc1ccc(C(c2ccc(C#N)cc2)n2cncn2)cc1 [letrozole] | 24% | 2.2% |  |  |
| CC/C(=C(\c1ccccc1)c1ccc(OCCN(C)C)cc1)c1ccccc1 [tamoxifen] |  |  | 57.1% | 90.0% |

From patent US20070134688A1, “CALCULATED INDEX OF GENOMIC EXPRESSION OF ESTROGEN RECEPTOR (ER) AND ER-RELATED GENES” (THE BOARD OF REGENTS OF THE UNIVERSITY OF TEXAS SYSTEM, priority 2005, published 2007)
